What was measured:
Format in all cases: cell-based
[1] = system: fibroblasts isolated from human dermis; experiment: Western blot analysis of type 1 collagen expression, two-dimensional culture of dermal fibroblasts
Excerpt: The levels of type 1 collagen in the 3-week cultured control group (3WC) and the 3-week cultured test group (3WR), which had been collected in Example 1-2), were compared with each other. For this purpose, each sample was subjected to Western blot analysis. In the Western blot analysis, each sample was electrophoresed on 8% SDS-PAGE gel, and the resulting collagen band was transferred to a nitrocellulose membrane and then treated with type 1 collagen monoclonal antibody (Abcam, Cambridge, UK) (see FIG. 2). In the Western blot analysis, actin was also used as a positive control group.
Fibroblasts were isolated from skin dermis and subcultured, in the same manner as in Example 2. Then, the isolated fibroblasts were cultured in the second culture medium as described above under the same conditions for 2 days. Then, the cultured fibroblasts were supplied with a second culture medium containing 100 nM pamidronate at 3-day intervals and cultured in the medium for each period of 1 week, 2 weeks and 3 weeks. […]
RT-PCR on each of the 1-week, 2-week and 3-week cultured control groups, the 1-week, 2-week and 3-week cultured test group administered with pamidronate, and the 1-week, 2-week and 3-week cultured positive control group administered with vitamin. […] The mRNA levels of type 1 collagen in the samples, as measured in the RT-PCR reactions, were shown in FIG. 4 for comparison with each other. […]

[2] = system: fibroblasts isolated from human dermis; experiment: RT-PCR analysis of type 1 collagen mRNA level, two-dimensional culture of dermal fibroblasts
Experimental: Namely, total mRNA to be used in cDNA synthesis was isolated from the cells of the control and test groups using an RNeasy mini kit (QIAGEN, CA, USA). Then, the amount of the isolated total mRNA was calculated by measuring the absorbance at 260nm/280nm using an UV spectrophotometer (Eppendorf, Hamburg, Germany), thus quantifying the extracted mRNA and determining its purity (data not shown). Thereafter, 0.5 µg of the total mRNA was reacted with reverse transcriptase (Promega, WI, USA) using an oligo d(T) primer for one hour at 42 °C and for 5 minutes at 95 °C, and then the reaction was stopped at 4°C, thus synthesizing cDNA. The synthesized cDNA template was subjected to polymerase chain reaction (hereinafter, referred to as "PCR") using complementary primers of 5'-[sequence]-3' (SEQ ID NO: 1) (sense) and 5'-[sequence]-3' (SEQ ID NO: 2) (anti-sense). In the RT-PCR reaction, water was added to a reaction mixture of 0.5 µl of the template, 0.7 µl of each primer (10 pmole/µl) and PCR premix (Bioneer, Korea) to a final volume of 20 µl, and then, the aqueous mixture was pre-denatured at 94°C for 5 minutes using a thermal cycler and then subjected to 25 PCR cycles (each cycle consisting of 30 seconds at 94 °C, 30 seconds at 58 °C, and 30 seconds at 72 °C). Also, in the RT-PCR reaction, glyceraldehyde-3-phosphate dehydrogenase (GAPDH) was used as a positive control.
Then, the isolated fibroblasts were cultured in the second culture medium as described above under the same conditions for 2 days. Then, the cultured fibroblasts were supplied with a second culture medium containing 100 nM pamidronate at 3-day intervals and cultured in the medium for each period of 1 week, 2 weeks and 3 weeks. Also, fibroblasts cultured in a second culture medium containing 1mM vitamin C were used as a positive control group, and fibroblasts cultured in a secondary culture medium containing no vitamin C and pamidronate was used as a control group. […]

[3] = system: fibroblasts isolated from human dermis; experiment: Three-dimensional culture of dermal fibroblasts on PLGA support, haematoxylin-eosin staining of collagen layer; settings: 100 nM pamidronate together with 1 mM vitamin C; 4 weeks; control: vitamin C alone
Experimental: A given amount of dermal tissue was excised from the skin of three normal persons. The excised human dermis from which an epidermal and fatty layer had been removed was finely cut and treated with collagenase so as to isolate dermis from epidermis. The isolated dermal tissue was cultured in 0.25% trypsin solution at 36 °C for 10 minutes. Then, the culture broth was vortexed to isolate fibroblasts. The isolated cells were collected and washed, and then cultured in a DMEM medium (GIBCO, MO, U.S.A.) containing 10% fetal bovine serum (FBS). At about 70% confluence, they were subcultured.
A PLGA-based, disc-shaped polymer support (Innotech., Korea) with a diameter of 10 mm, a thickness of 3 mm, an average pore size of 300-500 µm and a porosity of 90%, was used in three-dimensional culture. The support was treated with 100 %(v/v), 90 %(v/v), 70 %(v/v) and then 10 %(v/v) ethanol in order, at 4 °C for each treatment, and washed with PBS (phosphate buffered saline) and a second culture medium followed by drying. Next, 100 µl of a suspension of 1 x 10^6 dermal fibroblasts cultured as described above was plated on the support and cultured in a culture dish with a diameter of 60 mm. After two hours, 6 ml of the second culture medium as described above was added to the cells, and the mixture was cultured in a shaking incubator (30rpm). […]

[4] = system: fibroblasts isolated from human oral epithelium; experiment: Western blot analysis of type 1 collagen protein level, two-dimensional culture of oral fibroblasts; settings: 100 ng/ml pamidronate together with 1mM vitamin C; 3-week culture (3WR) vs control (3WC)
Experimental: (§1) The epithelium naturally exuded from a patient who had been undergoing a surgical operation due to oral diseases was mixed with […] DMEM (LG-DMEM, glucose 1g/L, GIBCO, MO, USA) medium, a first culture medium, and the mixture was pre-centrifuged to isolate cells. The cells were ultra-centrifuged using Percoll solution (SIGMA, MD, USA), thus isolating only nucleated cells. The nucleated cells isolated as described above cultured in an incubator under conditions of 5% (v/v) CO2 and 37.5 °C while replacing a second culture medium (high-glucose DMEM medium containing 10% bovine fetal serum) at two-day intervals, and only fibroblasts were isolated from the culture medium.
The isolated fibroblasts were cultured in said second culture medium under the same conditions for 2 days to saturate them. Then, the saturated fibroblasts were cultured in a second culture medium containing 1mM vitamin C and 100 ng/ml pamidronate (Hanlim Pharm. Co., Ltd., Korea) for each period of 1 week, 2 weeks and 3 weeks, while replacing the medium at 3-day intervals. As a control group, a second culture medium containing no vitamin C and pamidronate was used.
The levels of type 1 collagen in the 3-week cultured control group (3WC) and the 3-week cultured test group (3WR), which had been collected in Example 1-2), were compared with each other. […]

[5] = system: fibroblasts isolated from human oral epithelium; experiment: RT-PCR analysis of type 1 collagen mRNA level, two-dimensional culture of oral fibroblasts; settings: 100 ng/ml pamidronate together with 1mM vitamin C; cultured 1, 2 and 3 weeks (1WR, 2WR, 3WR) vs control medium without both
Experimental: as §1
The isolated fibroblasts were cultured in said second culture medium under the same conditions for 2 days to saturate them. […]
The collagen mRNA levels of the 1-week cultured control group (1WC), the 2-week cultured control group (2WC), the 3-week cultured control group (3WC), the 1-week cultured test group (1WR), the 2-week cultured test group (2WR) and the 3-week cultured group (3WR), which had been collected in Example 1-2), were measured and compared with each other. […]

Which results are given for `NCCCC(O)(P(=O)(O)O)P(=O)(O)O` [alendronate, 4-amino-1-hydroxybutylidene-1,1-bisphospnonic acid]?
type 1 collagen protein (Western blot) ([1]; alendronate alone, same concentration as pamidronate (100 nM), cultured one week, FIG. 7): remarkably increased; mRNA level of type 1 collagen ([2]; alendronate alone, same concentration as pamidronate (100 nM), cultured one week, FIG. 6): remarkably increased

`NCCC(O)(P(=O)(O)O)P(=O)(O)O` [pamidronate, 3-amino-1-hydroxypropylidene-1,1-bisphosphonic acid] was tested. Which “expression level of type 1 collagen” value ([1]; 100 nM pamidronate alone, three weeks of culture, compared with single addition of 1mM vitamin C) did it give?
Its value is “remarkable increase”.

And the “mRNA level of type 1 collagen” value ([2]; 100 nM pamidronate alone, cultured 1, 2 and 3 weeks)?
Its value is “high regardless of culture period”.

And the “layer of collagen adhered to the surface of the PLGA support” value [3]?
Its value is “much thicker than the case of addition of vitamin C alone”.

And the “type 1 collagen protein level” value [4]?
The value was “synthesized at a remarkably high level”.

What about the “mRNA level of type 1 collagen” value [5] of the same compound?
Its value is “higher mRNA level than that of the 3-week cultured control group”.

How did the “mRNA level of type 1 collagen” value ([2]; 1mM vitamin C alone (positive control), cultured 1, 2 and 3 weeks) turn out when `O=C1O[C@H]([C@@H](O)CO)C(O)=C1O` [vitamin C] was run?
Its value is “increased rapidly in the initial stage of culture, but it was reduced with an increase in culture time”.
